Measured values published in patent publication US20190142800A1, “SYNERGISTIC ANTIFUNGAL COMPOSITIONS AND METHODS THEREOF” (VYOME THERAPEUTICS LIMITED, priority 2016, published 2019).
One block for each compound: values may come before it.

Experiments:
[1] = system: terbinafine resistant Trichophyton interdigitale (GTB-2S); test: Checkerboard assay on terbinafine resistant Trichophyton interdigitale (GTB-2S); type: cell-based; conditions: for MIC: Trichophyton interdigitale
Experimental: (§1) The synergy is measured by determining the fractional inhibitory concentration (FIC) value of the combination. This experimental set up, called checkerboard method, allows measurement of a desired effect (inhibition of fungal growth in this case) at different combinations of various concentrations of the two agents (antifungal agent and fatty acid/ester). […] No agent is added to the penultimate column on the right and the bottom row. The final column on the right is used for growth control (only inoculum in broth) and sterility control (broth alone, no inoculum). […] FIC values for both agents in a particular well were calculated in this way followed by determination of the FIC index (sum of the FICs of each drug in the concerned well). […] Agents Chemother.
(§2) Using the checkerboard layout experimental setup described above (FIG. 1A), various medium-chain fatty acids were tested for their ability to potentiate the activity of a known antifungal agent. Concentrations above and below the MIC of each test agent were tested using serial dilution. The same procedure was expanded to test combinations of various medium-chain fatty acids C-1 to C-14 (such caprylic acid, undecylenic acid and lauric acid) and esters thereof, with antifungal agents from various classes including azoles, allylamines, benzylamines, zinc pyrithione and piroctone olamine against both susceptible and resistant Trichophyton spp. (filamentous fungus) and Candida spp. (yeast).
(§3) Potentiation of the activity of antimycotic agents using ester derivatives of medium chain fatty acids was tested in a standard, well accepted in vitro assay system to check for synergy. This experimental set up, called checkerboard method, allows measurement of a desired effect (inhibition of fungal growth in this case) at different combinations of various concentrations of two agents. A chosen medium chain fatty acid (C-1 to C-14) or its ester derivative was tested for its ability to potentiate the activity of a known antifungal agent (various classes) using the checkerboard layout. Various concentrations above and below the MIC of each test agent were tested using serial dilution in Sabouraud dextrose broth. […] FIC values for both test agents in a particular well are calculated in this way followed by determination of the FIC index (sum of the FICs of each drug in the concerned well).

C. albicans (ATCC-90028) = test: Checkerboard assay on C. albicans (ATCC-90028); type: cell-based, Candida albicans
Experimental: (§4) The synergy is measured by determining the fractional inhibitory concentration (FIC) value of the combination. This experimental set up, called checkerboard method, allows measurement of a desired effect (inhibition of fungal growth in this case) at different combinations of various concentrations of the two agents (antifungal agent and fatty acid/ester). […] No agent is added to the penultimate column on the right and the bottom row. The final column on the right is used for growth control (only inoculum in broth) and sterility control (broth alone, no inoculum). […] FIC value for each agent in a particular well of the checkerboard layout was calculated by dividing the agent concentration in that well by the established MIC value of the agent against the test organism (Hsieh et al., Synergy assessed by checkerboard: A critical Analysis, Diagn. Microbiol. Infect Dis. (1993) 16:343-349). FIC values for both agents in a particular well were calculated in this way followed by determination of the FIC index (sum of the FICs of each drug in the concerned well). […] Agents Chemother. (2010) 54(2): 602-609].
as §2
(§5) Potentiation of the activity of antimycotic agents using ester derivatives of medium chain fatty acids was tested in a standard, well accepted in vitro assay system to check for synergy. This experimental set up, called checkerboard method, allows measurement of a desired effect (inhibition of fungal growth in this case) at different combinations of various concentrations of two agents. A chosen medium chain fatty acid (C-1 to C-14) or its ester derivative was tested for its ability to potentiate the activity of a known antifungal agent (various classes) using the checkerboard layout. Various concentrations above and below the MIC of each test agent were tested using serial dilution in Sabouraud dextrose broth. […] FIC value for a drug in a particular well of the checkerboard layout is calculated by dividing the drug concentration in that well by the established MIC value of the drug against the test organism (Hsieh et al., Synergy assessed by checkerboard: A critical Analysis, Diagn. Microbiol. Infect Dis. (1993) 16:343-349). FIC values for both test agents in a particular well are calculated in this way followed by determination of the FIC index (sum of the FICs of each drug in the concerned well).

[2] = system: azole resistant C. albicans MTCC 227; test: Checkerboard assay on azole resistant C. albicans MTCC 227; type: cell-based, Candida albicans; conditions: for MIC: Candida albicans, MTCC227, agent alone
Experimental: as §1, §2, §3

[3] = system: Trichophyton rubrum (ATCC-28188); test: Checkerboard assay of fatty acid/ester with antifungals on Trichophyton rubrum (ATCC 28188); type: cell-based; parameters: key to FIC index: FIC index = sum of FICs; FIC = agent conc in well / agent MIC; conditions: for MIC: Trichophyton rubrum, ATCC28188, agent alone
Experimental: as §4, §2, §5

[4] = agent's MIC in combination terbinafine or butenafine + caprylic acid
[5] = agent's MIC in combination terbinafine or butenafine + glyceryl monocaprylate
[6] = combination terbinafine or butenafine + caprylic acid
[7] = combination terbinafine or butenafine + glyceryl monocaprylate
[8] = in combination with caprylic acid
[9] = in combination with glyceryl monocaprylate
[10] = in combination with propylene glycol monocaprylate
[11] = Table 9, caprylic acid (C8) series
[12] = Table 10, propylene glycol monocaprylate series
[13] = Table 12, undecylenic acid (C11) series
[14] = Table 13, lauric acid (C12) series
[15] = agent's MIC in combination antifungal + caprylic acid (partner: other agent of same combination no.)
[16] = agent's MIC in combination antifungal + lauric acid (partner: other agent of same combination no.)
[17] = agent's MIC in combination antifungal + propylene glycol monocaprylate (partner: other agent of same combination no.)
[18] = agent's MIC in combination antifungal + undecylenic acid (partner: other agent of same combination no.)
[19] = antifungal in combination with caprylic acid
[20] = antifungal in combination with lauric acid
[21] = antifungal in combination with propylene glycol monocaprylate
[22] = antifungal in combination with undecylenic acid
[23] = combination antifungal + caprylic acid
[24] = combination antifungal + lauric acid
[25] = combination antifungal + propylene glycol monocaprylate
[26] = combination antifungal + undecylenic acid
[27] = agent's MIC in combination antifungal + glyceryl monocaprylate (partner: other agent of same combination no.)
[28] = agent's MIC in combination antifungal + propylene glycol monolaurate (partner: other agent of same combination no.)
[29] = antifungal in combination with glyceryl monocaprylate
[30] = antifungal in combination with propylene glycol monolaurate
[31] = combination antifungal + glyceryl monocaprylate
[32] = combination antifungal + propylene glycol monolaurate

MIC ([1]; agent alone, Table 7): 7.5 µg/mL
Combination MIC [1, 4]: 0.468 µg/mL
Combination MIC [1, 5]: 0.234 µg/mL
Combination MIC ([1]; agent's MIC in combination terbinafine or butenafine + propylene glycol monocaprylate): 0.117 µg/mL
SMILES: CN(Cc1ccc(C(C)(C)C)cc1)Cc1cccc2ccccc12 [Butenafine]
FIC [1, 6]: 0.0625
FIC [1, 7]: 0.0312
FIC ([1]; combination terbinafine or butenafine + propylene glycol monocaprylate): 0.016
FIC index [1, 8]: 0.562
Interaction [1, 8]: Synergistic (Combinations that gave FIC indices less than 1 were designated “synergistic”)
FIC index [1, 9]: 0.531
Interaction [1, 9]: Synergistic (Combinations that gave FIC indices less than 1 were designated “synergistic”)
FIC index [1, 10]: 0.516
Interaction [1, 10]: Synergistic (Combinations that gave FIC indices less than 1 were designated “synergistic”)

MIC ([1]; agent alone, Table 7): 30 µg/mL
Agent MIC ([1]; agent alone, Table 7): 15 µg/mL
Combination MIC [1, 4]: 0.117 µg/mL
Combination MIC [1, 5]: 0.468 µg/mL
SMILES: CN(C/C=C/C#CC(C)(C)C)Cc1cccc2ccccc12 [Terbinafine]
FIC [1, 6]: 0.0078
FIC [1, 7]: 0.0312
FIC index [1, 8]: 0.5007
Interaction [1, 8]: Synergistic (Combinations that gave FIC indices less than 1 were designated “synergistic”)
FIC index [1, 9]: 0.531
Interaction [1, 9]: Synergistic (Combinations that gave FIC indices less than 1 were designated “synergistic”)
Interaction [1, 10]: Synergistic (Combinations that gave FIC indices less than 1 were designated “synergistic”)

MIC (C. albicans (ATCC-90028); Candida albicans, ATCC90028, agent alone, Table 8): 7.5 µg/mL
Combination MIC (C. albicans (ATCC-90028); agent's MIC in combination luliconazole + caprylic acid): 0.117 µg/mL
Combination MIC (C. albicans (ATCC-90028); agent's MIC in combination luliconazole + glyceryl monocaprylate): 0.117 µg/mL
MIC [2, 11]: 8 µg/mL
MIC [2, 12]: 8 µg/mL
MIC [2, 13]: 8 µg/mL
MIC [2, 14]: 8 µg/mL
Combination MIC [2, 15]: 0.5 µg/mL
Combination MIC [2, 16]: 1 µg/mL
Combination MIC [2, 17]: 0.5 µg/mL
Combination MIC [2, 18]: 1 µg/mL
SMILES: N#C/C(=C1/SC[C@@H](c2ccc(Cl)cc2Cl)S1)n1ccnc1 [Luliconazole]
FIC (C. albicans (ATCC-90028); combination luliconazole + caprylic acid): 0.015
FIC (C. albicans (ATCC-90028); combination luliconazole + glyceryl monocaprylate): 0.0156
FIC index (C. albicans (ATCC-90028); [8]): 0.265
Interaction (C. albicans (ATCC-90028); [8]): Synergistic (Combinations that gave FIC indices less than 1 were designated “synergistic”)
FIC index (C. albicans (ATCC-90028); [9]): 0.0781
Interaction (C. albicans (ATCC-90028); [9]): Synergistic (Combinations that gave FIC indices less than 1 were designated “synergistic”)
FIC index [2, 19]: 0.3
Interaction [2, 19]: Synergistic (Combinations that gave FIC indices less than 1 were designated “synergistic”)
FIC index [2, 20]: 0.25
Interaction [2, 20]: Synergistic (Combinations that gave FIC indices less than 1 were designated “synergistic”)
FIC index [2, 21]: 0.187
Interaction [2, 21]: Synergistic (Combinations that gave FIC indices less than 1 were designated “synergistic”)
FIC index [2, 22]: 0.187
Interaction [2, 22]: Synergistic (Combinations that gave FIC indices less than 1 were designated “synergistic”)
FIC [2, 23]: 0.062
FIC [2, 24]: 0.125
FIC [2, 25]: 0.0625
FIC [2, 26]: 0.125

MIC ([3]; Table 1, caprylic acid series): 0.125 µg/mL
MIC ([3]; Table 2, propylene glycol monocaprylate series): 0.125 µg/mL
MIC ([3]; Table 3, glyceryl monocaprylate series): 0.125 µg/mL
MIC ([3]; Table 4, undecylenic acid (C11) series): 0.03 µg/mL
MIC ([3]; Table 5, lauric acid (C12) series): 0.03 µg/mL
MIC ([3]; Table 6, propylene glycol monolaurate series): 0.03 µg/mL
Combination MIC [3, 15]: 0.0625 µg/mL
Combination MIC [3, 27]: 0.0625 µg/mL
Combination MIC [3, 16]: 0.015 µg/mL
Combination MIC [3, 17]: 0.007 µg/mL
Combination MIC [3, 28]: 0.008 µg/mL
Combination MIC [3, 18]: 0.015 µg/mL
MIC [2, 11]: 128 µg/mL
MIC [2, 12]: 128 µg/mL
MIC ([2]; Table 11, glyceryl monocaprylate series): 128 µg/mL
MIC [2, 13]: 128 µg/mL
MIC [2, 14]: 128 µg/mL
MIC ([2]; Table 14, propylene glycol monolaurate series): 128 µg/mL
Combination MIC [2, 15]: 0.5 µg/mL
Combination MIC [2, 27]: 1 µg/mL
Combination MIC [2, 16]: 0.5 µg/mL
Combination MIC [2, 17]: 4 µg/mL
Combination MIC [2, 28]: 0.5 µg/mL
Combination MIC [2, 18]: 4 µg/mL
SMILES: C=C1CCN([C@H](C)[C@](O)(Cn2cncn2)c2ccc(F)cc2F)CC1 [Efinaconazole]
FIC index [3, 19]: 0.625
Interaction [3, 19]: Synergistic (Combinations that gave FIC indices less than 1 were designated “synergistic”)
FIC index [3, 29]: 0.625
Interaction [3, 29]: Synergistic (Combinations that gave FIC indices less than 1 were designated “synergistic”)
FIC index [3, 20]: 0.75
Interaction [3, 20]: Synergistic (Combinations that gave FIC indices less than 1 were designated “synergistic”)
FIC index [3, 21]: 0.556
Interaction [3, 21]: Synergistic (Combinations that gave FIC indices less than 1 were designated “synergistic”)
FIC index [3, 30]: 0.76
Interaction [3, 30]: Synergistic (Combinations that gave FIC indices less than 1 were designated “synergistic”)
FIC index [3, 22]: 0.74
Interaction [3, 22]: Synergistic (Combinations that gave FIC indices less than 1 were designated “synergistic”)
FIC [3, 23]: 0.5
FIC [3, 31]: 0.5
FIC [3, 24]: 0.5
FIC [3, 25]: 0.056
FIC [3, 32]: 0.266
FIC [3, 26]: 0.5
FIC index [2, 19]: 0.3
Interaction [2, 19]: Synergistic (Combinations that gave FIC indices less than 1 were designated “synergistic”)
FIC index [2, 29]: 0.257
Interaction [2, 29]: Synergistic (Combinations that gave FIC indices less than 1 were designated “synergistic”)
FIC index [2, 20]: 0.128
Interaction [2, 20]: Synergistic (Combinations that gave FIC indices less than 1 were designated “synergistic”)
FIC index [2, 21]: 0.281
Interaction [2, 21]: Synergistic (Combinations that gave FIC indices less than 1 were designated “synergistic”)
FIC index [2, 30]: 0.018
Interaction [2, 30]: Synergistic (Combinations that gave FIC indices less than 1 were designated “synergistic”)
FIC index [2, 22]: 0.093
Interaction [2, 22]: Synergistic (Combinations that gave FIC indices less than 1 were designated “synergistic”)
FIC [2, 23]: 0.062
FIC [2, 31]: 0.007
FIC [2, 24]: 0.003
FIC [2, 25]: 0.031
FIC [2, 32]: 0.003
FIC [2, 26]: 0.031
